Columns and labels:
[1] = system: PCR product of HBV wild type; assay: PNA microarray hybridization with biotinylated PCR product, streptavidine-Cy5 fluorescence (single mismatch); assay type: binding, hepatitis B virus (HBV); conditions: hybridization at 40° C. for 2 hours, fluorescence scanner, SEQ ID Nos. 2 to 4 compared to SEQ ID No. 1
[2] = system: PCR product of HBV mutant type; assay: PNA microarray hybridization with biotinylated PCR product, streptavidine-Cy5 fluorescence (perfect match); assay type: binding, hepatitis B virus (HBV)
Description: The purified oligomer was diluted at a concentration of […], and spotted on a slide glass functionalized with epoxy group (Panagene, Korea) in pin mode, and the slide was allowed to stand for 4 hours at room temperature while maintaining 75% humidity. Then, it was immersed into DMF, and washed by ultrasonication for 15 minutes. It was immersed into DMF containing 0.1 M succinic anhydride and reacted at 40° C. for 2 hours. And the reaction mixture was washed by ultrasonication with DMF and deionized water, sequentially, for 15 minutes per time. Then, the slide was treated with 100 mM Tris-HCl buffer containing 0.1 M ethanolamine for 2 hours to inactivate the residual epoxy groups on the surface of the slide glass. The slide glass was washed by ultrasonication with deionized water, twice for 15 minutes per time, treated with boiling water for 5 minutes, washed with deionized water for 5 minutes, and dried. Then, a PNA microarray was ready for hybridization after attaching a silicon rubber sealing mat having holes, which can contain 100 μl of hybridization solution, to the slide glass.
To a hybridization solution of 100 μl was added 5 μl of the PCR product of HBV mutant type having biotin attached thereto, and streptavidine-Cy5 was added thereto to cause fluorescent reaction. […] The PNA microarray was scanned by a fluorescence scanner. […]

k(k)k-OO-GAGCCATGAGAAA (all peptide nucleic acid (PNA); N-terminal lysines and OO linker attached) [SEQ ID No. 1, PNA oligomer, 13 mer consisting of natural bases to detect mutation]
single mismatch signal [1]: intensive single mismatch signal | perfect match signal ([2]; PCR product of HBV mutant type, hybridization at 40° C. for 2 hours, fluorescence scanner, FIGS. 2 and 3): intensive perfect match signal | discriminability of HBV mutant type against wild type ([2]; perfect match signal for HBV mutant type versus single mismatch signal for HBV wild type): cannot discriminate HBV mutant type against wild type

Source: patent US20100292471A1, “PEPTIDE NUCLEIC ACID OLIGOMERS […] BASES,PREPARATION METHODS THEREOF, AND KITS, DEVICES AND METHODS FOR THE ANALYSIS, DETECTION OR MODULATION OF NUCLEIC ACIDS USING THE SAME” (PANAGENE INC., priority 2006, published 2010)
